Experimental data reported in patent US20070049564A1 (Wyeth, priority 2005, published 2007).
Values after ≈ are worked out from the molar mass of the structure shown. Where two headings read alike, the source gives them in different places.

How the values were obtained:
P. aeruginosa GC 2214 = assay: MIC, broth microdilution; conditions: Pseudomonas aeruginosa
S. aureus GC 1131 = assay: MIC, broth microdilution; conditions: Staphylococcus aureus
E. coli GC 4559 = assay: MIC, broth microdilution; conditions: Escherichia coli, GC4559, read-out: MINIMAL INHIBITORY CONCENTRATION MIC, pre-incubated in Water
E. coli GC 2203 = assay: MIC, broth microdilution; conditions: Escherichia coli, GC2203, read-out: MINIMAL INHIBITORY CONCENTRATION MIC, pre-incubated in Water
Description: Antimicrobial susceptibility testing. The in vitro activities of the antibiotics are determined by the broth microdilution method as recommended by the National Committee for Clinical Laboratory Standards (NCCLS) (1). Mueller-Hinton II broth (MHBII)(BBL Cockeysville, Md.) is the medium employed in the testing procedures. Microtiter plates containing serial dilutions of each antimicrobial agent are inoculated with each organism to yield the appropriate density (10^5 CFU/ml) in a 100 μl final volume. The plates are incubated for 18-22 hours at 35° C. in ambient air. […] Standard Pharmacological Test Procedures
Presented in Tables I-XIII are representative compounds of Formula I which were evaluated against a panel of 40 selected gram-positive and gram-negative bacteria strains by pre-incubation in water, mouse serum or human serum. Representative compounds were first incubated in mouse serum for an hour prior to the in vitro testing against a panel of selected gram-positive and gram-negative bacteria strains. All compounds were also pre-incubated in water for an hour prior to testing as control. Representative compounds of Formula I were incubated in human serum prior to MIC determination.

E. coli GC 2272 = assay: MIC, broth microdilution; conditions: Escherichia coli, GC2272, read-out: MINIMAL INHIBITORY CONCENTRATION MIC, pre-incubated in Water
E. faecalis GC 2267 = assay: MIC, broth microdilution; conditions: for MIC: Enterococcus faecalis
S. aureus GC 6467 = assay: MIC, broth microdilution; conditions: Staphylococcus aureus
E. coli GC 6465 = assay: MIC, broth microdilution; conditions: Escherichia coli, GC6465, read-out: MINIMAL INHIBITORY CONCENTRATION MIC, pre-incubated in Water
S. epidermidis GC 4935 = assay: MIC, broth microdilution; conditions: Staphylococcus epidermidis
E. coli GC 2232 = assay: MIC, broth microdilution; conditions: Escherichia coli, GC2232, read-out: MINIMAL INHIBITORY CONCENTRATION MIC, pre-incubated in Water
S. aureus GC 2216 = assay: MIC, broth microdilution; conditions: Staphylococcus aureus
S. aureus GC 6466 = assay: MIC, broth microdilution; conditions: for MIC: Staphylococcus aureus
E. coli GC 2234 = assay: MIC, broth microdilution; conditions: Escherichia coli, GC2234, read-out: MINIMAL INHIBITORY CONCENTRATION MIC, pre-incubated in Water
E. coli GC 2231 = assay: MIC, broth microdilution; conditions: Escherichia coli, GC2231, read-out: MINIMAL INHIBITORY CONCENTRATION MIC, pre-incubated in Water
Description: (§1) Antimicrobial susceptibility testing. The in vitro activities of the antibiotics are determined by the broth microdilution method as recommended by the National Committee for Clinical Laboratory Standards (NCCLS) (1). Mueller-Hinton II broth (MHBII)(BBL Cockeysville, Md.) is the medium employed in the testing procedures. Microtiter plates containing serial dilutions of each antimicrobial agent are inoculated with each organism to yield the appropriate density (10^5 CFU/ml) in a 100 μl final volume. The plates are incubated for 18-22 hours at 35° C. in ambient air.
Representative compounds were first incubated in mouse serum for an hour prior to the in vitro testing against a panel of selected gram-positive and gram-negative bacteria strains. All compounds were also pre-incubated in water for an hour prior to testing as control.

S. pneumoniae* GC 4465 = assay: MIC, broth microdilution; conditions: for MIC: Streptococcus pneumoniae
E. faecalis GC 2242 = assay: MIC, broth microdilution; conditions: Enterococcus faecalis
S. aureus GC 4536 = assay: MIC, broth microdilution; conditions: for MIC: Staphylococcus aureus
Description: as §1
(§2) Representative compounds were first incubated in mouse serum for an hour prior to the in vitro testing against a panel of selected gram-positive and gram-negative bacteria strains. All compounds were also pre-incubated in water for an hour prior to testing as control. Representative compounds of Formula I were incubated in human serum prior to MIC determination.

E. coli GC 4560 = assay: MIC, broth microdilution; conditions: Escherichia coli, GC4560, read-out: MINIMAL INHIBITORY CONCENTRATION MIC, pre-incubated in Water
Description: as §1, §2

Staph. aureus Smith = assay: In vivo activity (oral, iv; ED50) against Staph. aureus Smith in mice
Description: Representative examples of compounds of Formula I were tested for the oral efficacy using S. aureus Smith in mice.

S. pneumoniae+ GC 4465 = assay: MIC, broth microdilution; conditions: for MIC: Streptococcus pneumoniae
[1] = read-out: MINIMAL INHIBITORY CONCENTRATION MIC, pre-incubated in Mouse Serum
[2] = read-out: MINIMAL INHIBITORY CONCENTRATION MIC, pre-incubated in Water

Structure (SMILES): CN(C)c1cc(NC(=O)CN(C(=O)OCOC(=O)CC(C)(C)C)C(C)(C)C)c(O)c2c1C[C@H]1C[C@H]3[C@H](N(C)C)C(O)=C(C(N)=O)C(=O)[C@@]3(O)C(O)=C1C2=O [Example 42, ({[(2-{[(5aR,6aS,7S,10aS)-9-(aminocarbonyl)-4,7-bis(dimethylamino)-1,8,10a,11-tetrahydroxy-10,12-dioxo-5,5a,6,6a,7,10,10a,12-octahydrotetracen-2-yl]amino}-2-oxoethyl)(tert-butyl)amino]carbonyl}oxy)methyl 3,3-dimethylbutanoate]
- MIC (P. aeruginosa GC 2214; GC2214, read-out: MINIMAL INHIBITORY CONCENTRATION MIC, pre-incubated in Mouse Serum): > 64 µg/mL
- MIC (P. aeruginosa GC 2214; GC2214, read-out: MINIMAL INHIBITORY CONCENTRATION MIC, pre-incubated in Water): > 64 µg/mL
- MIC (S. aureus GC 1131; GC1131, read-out: MINIMAL INHIBITORY CONCENTRATION MIC, pre-incubated in Mouse Serum): 2 µg/mL (≈ 2.64 µM)
- MIC (S. aureus GC 1131; GC1131, read-out: MINIMAL INHIBITORY CONCENTRATION MIC, pre-incubated in Water): 4 µg/mL (≈ 5.28 µM)
- MIC (E. coli GC 4559): > 64 µg/mL
- MIC (E. coli GC 2203): > 64 µg/mL
- MIC (E. coli GC 2272): > 64 µg/mL
- MIC (E. faecalis GC 2267; GC2267, read-out: MINIMAL INHIBITORY CONCENTRATION MIC, pre-incubated in Mouse Serum): 2 µg/mL (≈ 2.64 µM)
- MIC (E. faecalis GC 2267; GC2267, read-out: MINIMAL INHIBITORY CONCENTRATION MIC, pre-incubated in Water): 4 µg/mL (≈ 5.28 µM)
- MINIMAL INHIBITORY CONCENTRATION MIC (E. faecalis GC 2267; pre-incubated in Mouse Serum): 4 UG/ML
- MIC (S. aureus GC 6467; GC6467, read-out: MINIMAL INHIBITORY CONCENTRATION MIC, pre-incubated in Mouse Serum): 4 µg/mL (≈ 5.28 µM)
- MIC (S. aureus GC 6467; GC6467, read-out: MINIMAL INHIBITORY CONCENTRATION MIC, pre-incubated in Water): 8 µg/mL (≈ 10.6 µM)
- MIC (E. coli GC 6465): > 64 µg/mL
- MIC (S. epidermidis GC 4935; GC4935, read-out: MINIMAL INHIBITORY CONCENTRATION MIC, pre-incubated in Mouse Serum): 4 µg/mL (≈ 5.28 µM)
- MIC (S. epidermidis GC 4935; GC4935, read-out: MINIMAL INHIBITORY CONCENTRATION MIC, pre-incubated in Water): 8 µg/mL (≈ 10.6 µM)
- MIC (E. coli GC 2232): > 64 µg/mL
- MIC (S. aureus GC 2216; GC2216, read-out: MINIMAL INHIBITORY CONCENTRATION MIC, pre-incubated in Mouse Serum): 2 µg/mL (≈ 2.64 µM)
- MIC (S. aureus GC 2216; GC2216, read-out: MINIMAL INHIBITORY CONCENTRATION MIC, pre-incubated in Water): 4 µg/mL (≈ 5.28 µM)
- MIC (S. aureus GC 6466; GC6466, read-out: MINIMAL INHIBITORY CONCENTRATION MIC, pre-incubated in Mouse Serum): 2 µg/mL (≈ 2.64 µM)
- MIC (S. aureus GC 6466; GC6466, read-out: MINIMAL INHIBITORY CONCENTRATION MIC, pre-incubated in Water): 4 µg/mL (≈ 5.28 µM)
- MINIMAL INHIBITORY CONCENTRATION MIC (S. aureus GC 6466; pre-incubated in Mouse Serum): 4 UG/ML
- MIC (E. coli GC 2234): > 64 µg/mL
- MIC (E. coli GC 2231): > 64 µg/mL
- MIC (S. pneumoniae* GC 4465; [1]): 2 µg/mL (≈ 2.64 µM)
- MIC (S. pneumoniae* GC 4465; [2]): 4 µg/mL (≈ 5.28 µM)
- MINIMAL INHIBITORY CONCENTRATION MIC (S. pneumoniae* GC 4465; pre-incubated in Mouse Serum): 4 UG/ML
- MIC (E. faecalis GC 2242; GC2242, read-out: MINIMAL INHIBITORY CONCENTRATION MIC, pre-incubated in Mouse Serum): 4 µg/mL (≈ 5.28 µM)
- MIC (E. faecalis GC 2242; GC2242, read-out: MINIMAL INHIBITORY CONCENTRATION MIC, pre-incubated in Water): 8 µg/mL (≈ 10.6 µM)
- MIC (S. aureus GC 4536; GC4536, read-out: MINIMAL INHIBITORY CONCENTRATION MIC, pre-incubated in Mouse Serum): 2 µg/mL (≈ 2.64 µM)
- MIC (S. aureus GC 4536; GC4536, read-out: MINIMAL INHIBITORY CONCENTRATION MIC, pre-incubated in Water): 8 µg/mL (≈ 10.6 µM)
- MINIMAL INHIBITORY CONCENTRATION MIC (S. aureus GC 4536; pre-incubated in Mouse Serum): 4 UG/ML
- MIC (E. coli GC 4560): 8 µg/mL (≈ 10.6 µM)
- ED50 (Staph. aureus Smith; Staphylococcus aureus, in Mus musculus, iv, read-out: ED50 SIV (Staph aureus Smith)): 1.43 mg/kg
- ED50 (Staph. aureus Smith; Staphylococcus aureus, in Mus musculus, po, read-out: ED50 SOD (Staph aureus Smith)): 5.68 mg/kg
- ED50 (Staph. aureus Smith; Staphylococcus aureus, in Mus musculus, po, read-out: ED50 Staph Smith SOD): 5.68 mg/kg
- ED50 (Staph. aureus Smith; iv, read-out: ED50 Staph Smith SIV): 1.43 mg/kg
- MIC (S. pneumoniae+ GC 4465; [1]): 4 µg/mL (≈ 5.28 µM)
- MIC (S. pneumoniae+ GC 4465; [2]): 8 µg/mL (≈ 10.6 µM)
- MINIMAL INHIBITORY CONCENTRATION MIC (S. pneumoniae+ GC 4465; pre-incubated in Mouse Serum): 8 UG/ML
